Data from patent publication US20220160750A1, “SINGLE-NUCLEI CHARACTERIZATION OF AMYOTROPHIC LATERAL SCLEROSIS FRONTAL CORTEX” (President and Fellows of Harvard College, priority 2020, published 2022).
Where a SMILES comes first, the peptide text is derived from it. The star is where a group is joined. Cbz = O=C(OCc1ccccc1)*

What was measured:
[1] = tested on: neurons derived from human Pluripotent Stem Cells (hPSC); test: TDP-43 localisation (immunofluorescence) after proteasome inhibitor treatment of hPSC-derived neurons; format: cell-based; details: MG132 applied for 24 hrs
Description: (§1) In contrast, DEGs identified in THY1-cells were connected to cellular stresses previously associated with ALS^1,2 (FIG. 7D) and many were shared with transcriptional changes identified in patients' excitatory cells as a whole (FIG. 8B). […] It was next asked if aspects of these changes could be modeled in vitro using neurons derived from human Pluripotent Stem Cells (hPSC) (FIG. 15A).
Human embryonic stem cells were cultured in mTESR (Stemcell technologies) on matrigel (Corning). Neurons were generated from HuES-3-Hb9:GFP based on the motor neuron differentiation protocol previously described^27. Upon completion of the differentiation protocol, cells were sorted via flow-cytometry based on GFP signal intensity to yield GFP-positive neurons that were plated on PDL/laminin-coated plates (Sigma, Life technologies). Neurons were maintained in Neurobasal medium (Life Technologies) supplemented with N2 (Stemcell technologies), B27 (Life technologies), glutamax (Life technologies), non-essential amino acids (Life technologies), and neurotrophic factors (BDNF, GDNF, CNTF), and were grown for 28 days before the application of the proteasome inhibitors MG132 for 24 hrs.

[2] = tested on: neurons derived from human Pluripotent Stem Cells (hPSC); test: Bulk RNA-sequencing of hPSC-derived neurons after proteasome inhibitor treatment; format: cell-based; details: MG132 applied for 24 hrs, compared with excitatory neurons from sALS patients
Description: as §1
Human embryonic stem cells were cultured in mTESR (Stemcell technologies) on matrigel (Corning). Neurons were generated from HuES-3-Hb9:GFP based on the motor neuron differentiation protocol previously described^27. Upon completion of the differentiation protocol, cells were sorted via flow-cytometry based on GFP signal intensity to yield GFP-positive neurons that were plated on PDL/laminin-coated plates (Sigma, Life technologies). […]
RNA was extracted using RNeasy Plus kit (Qiagen), libraries were prepared using the Illumina TruSeq RNA kit v2 according to the manufacturer's directions, and sequenced at the Broad Institute core with samples randomly assigned between two flow chambers. […] The read counts were obtained from the aligned BAM-files in R using Rsubread. Differential gene expression was analyzed from the read counts in DESeq2 using a Wald's test for the treatment dosage and controlling for the sequencing flow cell.

Question: How did the “nuclear loss of TDP-43” value [1] turn out when `CC(C)C[C@@H](C=O)NC(=O)[C@H](CC(C)C)NC(=O)[C@H](CC(C)C)NC(=O)OCc1ccccc1` [MG132] (Cbz-Leu-Leu-Leu-aldehyde) was run?
Answer: Its value is “sufficient to induce nuclear loss of TDP-43”.

Question: What about the “transcriptomic changes after treatment (RNA-sequencing)” value [2] of the same compound?
Answer: The value was “widespread transcriptomic changes after treatment”.
